# Patent US6355799B1, “Substituted benzene compounds, process for their preparation, and herbicidal and defoliant compositions containing them” (ISK Americas Incorporated, priority 1997, dated 2002)
# Key:
# Assay type in all cases: in vivo
# [1] = tested on: sicklepod (Cassia obtusifolia, CASOB); experiment: Pre-emerge test, greenhouse herbicide activity screening; conditions: Senna obtusifolia, pre-emergence, 336 h, read-out: Pre-emerge Herbicidal Activity CASOB
# Summary of the method: (§1)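 Fourteen days after spraying, crop and weed injury was graded visually from 0, no effect, to 100, every plant dead. Test substances were dissolved in acetone and applied at 15–1000 g ai/ha with a flat-fan nozzle. Application was either pre-emergence, one day after sowing, or post-emergence at the 2–3 leaf stage.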
# [2] = tested on: johnsongrass (Sorghum halepense, SORHA); experiment: Post-emerge test, greenhouse herbicide activity screening; conditions: post-emerge; for phytotoxicity rating SORHA: 14 days after application, rating scale 0-100
# Summary of the method: as §1
# [3] = tested on: velvetleaf (Abutilon theophrasti, ABUTH); experiment: as above; conditions: post-emerge; for phytotoxicity rating ABUTH: 14 days after application, rating scale 0-100
# Summary of the method: as §1
# [4] = tested on: sicklepod (Cassia obtusifolia, CASOB); experiment: as above; conditions: post-emerge; for phytotoxicity rating CASOB: 14 days after application, rating scale 0-100
# Summary of the method: as §1
# [5] = tested on: redroot pigweed (Amaranthus retroflexus, AMARE); experiment: as above; conditions: post-emerge; for phytotoxicity rating AMARE: 14 days after application
# Summary of the method: as §1
# [6] = tested on: barnyardgrass (Echinochloa crus-galli, ECHCG); experiment: as above; conditions: post-emerge; for phytotoxicity rating ECHCG: 14 days after application, rating scale 0-100
# Summary of the method: as §1
# [7] = tested on: lambsquarters (Chenopodium album, CHEAL); experiment: as above; conditions: post-emerge; for phytotoxicity rating CHEAL: 14 days after application, rating scale 0-100
# Summary of the method: as §1
# [8] = tested on: large crabgrass (Digitaria sanguinalis, DIGSA); experiment: as above; conditions: post-emerge; for phytotoxicity rating DIGSA: 14 days after application, rating scale 0-100
# Summary of the method: as §1
# [9] = tested on: ivyleaf morningglory (Ipomoea hederacea, IPOHE); experiment: as above; conditions: post-emerge; for phytotoxicity rating IPOHE: 14 days after application, rating scale 0-100
# Summary of the method: as §1
# [10] = tested on: green foxtail (Setaria viridis, SETVI); experiment: as above; conditions: post-emerge; for phytotoxicity rating SETVI: 14 days after application, rating scale 0-100
# Summary of the method: as §1
# [11] = tested on: redroot pigweed (Amaranthus retroflexus, AMARE); experiment: Pre-emerge test, greenhouse herbicide activity screening; conditions: Amaranthus retroflexus, pre-emergence, 336 h, read-out: Pre-emerge Herbicidal Activity AMARE
# Summary of the method: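 Plants grown in 10 cm pots of sandy loam mix received acetone-dissolved compounds through a moving flat-fan nozzle. Doses ranged from 15 to 1000 g ai/ha. Pre-emerge pots were seeded one day earlier, post-emerge pots 8–21 days earlier. Fourteen days on, each pot was graded 0–100 for damage.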
# [12] = 63 g ai/ha, phytotoxicity rating 0-100, 14 days after application
# [13] = 250 g ai/ha, phytotoxicity rating 0-100, 14 days after application
# [14] = 63 g ai/ha, rating scale 0-100 (0 no damage, 100 complete death)
# [15] = 250 g ai/ha, rating scale 0-100
# [16] = pre-emerge, rate 63 g ai/ha, phytotoxicity rating 0-100 at 14 days after application
# [17] = pre-emerge, rate 250 g ai/ha, phytotoxicity rating 0-100 at 14 days after application
smiles,measurement,setting,value
"COC(=O)Nc1c(OC)c(Cl)cc(F)c1-n1c(=O)cc(C(F)(F)F)n(C)c1=O [Compound 4-1, 3-(4chloro-6-fluoro-3-methoxy-2-methoxycarbonylaminophenyl)-1-methyl-6-trifluoromethyl-2,4(1H, 3H)-pyrimidinedione]",pest or weed control at 63 g/ha,[1]; [12],95%
same,pest or weed control at 250 g/ha,[1]; [13],100%
same,phytotoxicity rating SORHA,[2]; 63 g ai/ha,0
same,phytotoxicity rating SORHA,[2]; 250 g ai/ha,20
same,phytotoxicity rating ABUTH,[3]; 63 g ai/ha,100
same,phytotoxicity rating ABUTH,[3]; 250 g ai/ha,100
same,phytotoxicity rating CASOB,[4]; 63 g ai/ha,30
same,phytotoxicity rating CASOB,[4]; 250 g ai/ha,50
same,phytotoxicity rating AMARE,[5]; [14],50
same,phytotoxicity rating AMARE,[5]; [15],95
same,phytotoxicity rating ECHCG,[6]; 63 g ai/ha,0
same,phytotoxicity rating ECHCG,[6]; 250 g ai/ha,0
same,phytotoxicity rating CHEAL,[7]; 63 g ai/ha,60
same,phytotoxicity rating CHEAL,[7]; 250 g ai/ha,98
same,phytotoxicity rating DIGSA,[8]; 63 g ai/ha,0
same,phytotoxicity rating DIGSA,[8]; 250 g ai/ha,0
same,phytotoxicity rating IPOHE,[9]; 63 g ai/ha,100
same,phytotoxicity rating IPOHE,[9]; 250 g ai/ha,100
same,phytotoxicity rating SETVI,[10]; 63 g ai/ha,0
same,phytotoxicity rating SETVI,[10]; 250 g ai/ha,10
same,pest or weed control at 63 g/ha,[11]; [12],100%
same,pest or weed control at 250 g/ha,[11]; [13],100%
Cc1nn(-c2c(Cl)cc(Cl)c(N)c2N)c(=O)n1C(F)F [Compound 6-20],pest or weed control at 63 g/ha,[1]; [16],0%
same,pest or weed control at 250 g/ha,[1]; [17],0%
same,pest or weed control at 63 g/ha,"[2]; Sorghum halepense, post-emergence, 336 h, 63 g ai/ha, phytotoxicity rating 0-100 at 14 days after application, read-out: Post-emerge Herbicidal Activity SORHA",0%
same,pest or weed control at 250 g/ha,"[2]; Sorghum halepense, post-emergence, 336 h, 250 g ai/ha, phytotoxicity rating 0-100 at 14 days after application, read-out: Post-emerge Herbicidal Activity SORHA",0%
same,pest or weed control at 63 g/ha,"[3]; Abutilon theophrasti, post-emergence, 336 h, 63 g ai/ha, phytotoxicity rating 0-100 at 14 days after application, read-out: Post-emerge Herbicidal Activity ABUTH",0%
same,pest or weed control at 250 g/ha,"[3]; Abutilon theophrasti, post-emergence, 336 h, 250 g ai/ha, phytotoxicity rating 0-100 at 14 days after application, read-out: Post-emerge Herbicidal Activity ABUTH",50%
same,pest or weed control at 63 g/ha,"[4]; Senna obtusifolia, post-emergence, 336 h, 63 g ai/ha, phytotoxicity rating 0-100 at 14 days after application, read-out: Post-emerge Herbicidal Activity CASOB",0%
same,pest or weed control at 250 g/ha,"[4]; Senna obtusifolia, post-emergence, 336 h, 250 g ai/ha, phytotoxicity rating 0-100 at 14 days after application, read-out: Post-emerge Herbicidal Activity CASOB",0%
same,pest or weed control at 63 g/ha,"[5]; Amaranthus retroflexus, post-emergence, 336 h, 63 g ai/ha, phytotoxicity rating 0-100 at 14 days after application, read-out: Post-emerge Herbicidal Activity AMARE",0%
same,pest or weed control at 250 g/ha,"[5]; Amaranthus retroflexus, post-emergence, 336 h, 250 g ai/ha, phytotoxicity rating 0-100 at 14 days after application, read-out: Post-emerge Herbicidal Activity AMARE",60%
same,pest or weed control at 63 g/ha,"[6]; Echinochloa crus-galli, post-emergence, 336 h, 63 g ai/ha, phytotoxicity rating 0-100 at 14 days after application, read-out: Post-emerge Herbicidal Activity ECHCG",0%
same,pest or weed control at 250 g/ha,"[6]; Echinochloa crus-galli, post-emergence, 336 h, 250 g ai/ha, phytotoxicity rating 0-100 at 14 days after application, read-out: Post-emerge Herbicidal Activity ECHCG",0%
same,pest or weed control at 63 g/ha,"[7]; Chenopodium album, post-emergence, 336 h, 63 g ai/ha, phytotoxicity rating 0-100 at 14 days after application, read-out: Post-emerge Herbicidal Activity CHEAL",0%
same,pest or weed control at 250 g/ha,"[7]; Chenopodium album, post-emergence, 336 h, 250 g ai/ha, phytotoxicity rating 0-100 at 14 days after application, read-out: Post-emerge Herbicidal Activity CHEAL",60%
same,pest or weed control at 63 g/ha,"[8]; Digitaria sanguinalis, post-emergence, 336 h, 63 g ai/ha, phytotoxicity rating 0-100 at 14 days after application, read-out: Post-emerge Herbicidal Activity DIGSA",0%
same,pest or weed control at 250 g/ha,"[8]; Digitaria sanguinalis, post-emergence, 336 h, 250 g ai/ha, phytotoxicity rating 0-100 at 14 days after application, read-out: Post-emerge Herbicidal Activity DIGSA",0%
same,pest or weed control at 63 g/ha,"[9]; Ipomoea, post-emergence, 336 h, 63 g ai/ha, phytotoxicity rating 0-100 at 14 days after application, read-out: Post-emerge Herbicidal Activity IPOHE",0%
same,pest or weed control at 250 g/ha,"[9]; Ipomoea, post-emergence, 336 h, 250 g ai/ha, phytotoxicity rating 0-100 at 14 days after application, read-out: Post-emerge Herbicidal Activity IPOHE",40%
same,pest or weed control at 63 g/ha,"[10]; Setaria viridis, post-emergence, 336 h, 63 g ai/ha, phytotoxicity rating 0-100 at 14 days after application, read-out: Post-emerge Herbicidal Activity SETVI",0%
same,pest or weed control at 250 g/ha,"[10]; Setaria viridis, post-emergence, 336 h, 250 g ai/ha, phytotoxicity rating 0-100 at 14 days after application, read-out: Post-emerge Herbicidal Activity SETVI",0%
same,pest or weed control at 63 g/ha,[11]; [16],10%
same,pest or weed control at 250 g/ha,[11]; [17],0%
"CNC(=O)N(C(=O)NC)c1c(OC)c(Cl)cc(F)c1-n1c(=O)cc(C(F)(F)F)n(C)c1=O [Compound 3-1, 3-[2-bis(methylaminocarbonyl)amino-4-chloro-6-fluoro-3-methoxyphenyl]-1-methyl-6-trifluoromethyl-2,4(1H, 3H)-pyrimidinedione]",pest or weed control at 63 g/ha,[1]; [12],0%
same,pest or weed control at 250 g/ha,[1]; [13],0%
same,phytotoxicity rating SORHA,[2]; 63 g ai/ha,0
same,phytotoxicity rating SORHA,[2]; 250 g ai/ha,0
same,phytotoxicity rating ABUTH,[3]; 63 g ai/ha,0
same,phytotoxicity rating ABUTH,[3]; 250 g ai/ha,0
same,phytotoxicity rating CASOB,[4]; 63 g ai/ha,0
same,phytotoxicity rating CASOB,[4]; 250 g ai/ha,0
same,phytotoxicity rating AMARE,[5]; [14],0
same,phytotoxicity rating AMARE,[5]; [15],60
same,phytotoxicity rating ECHCG,[6]; 63 g ai/ha,0
same,phytotoxicity rating ECHCG,[6]; 250 g ai/ha,0
same,phytotoxicity rating CHEAL,[7]; 63 g ai/ha,0
same,phytotoxicity rating CHEAL,[7]; 250 g ai/ha,60
same,phytotoxicity rating DIGSA,[8]; 63 g ai/ha,0
same,phytotoxicity rating DIGSA,[8]; 250 g ai/ha,0
same,phytotoxicity rating IPOHE,[9]; 63 g ai/ha,0
same,phytotoxicity rating IPOHE,[9]; 250 g ai/ha,30
same,phytotoxicity rating SETVI,[10]; 63 g ai/ha,0
same,phytotoxicity rating SETVI,[10]; 250 g ai/ha,0
same,pest or weed control at 63 g/ha,[11]; [12],0%
same,pest or weed control at 250 g/ha,[11]; [13],30%
